In PMC3355318 (Toxicological Sciences, 2012):

Columns and labels:
Huh-7 cells = details: ref Lin et al., 2012; cited from earlier work
HepG2 cells = details: ref Wang et al., 2002; cited from earlier work
[1] = test system: 3D spheroids constructed from immortal human C3A hepatocytes (HepG2/C3A)
[2] = ref Schulz and Schmoldt, 2003; cited from earlier work

Row | SMILES | LD50 converted from published LC50 (Huh-7 cells) | LD50 converted from published LC50 (HepG2 cells) | cellular ATP production at low compound concentrations [1] | LD50 ([1]; human) | Terminal elimination half-life [2]
1 | CC(=O)Nc1ccc(O)cc1 [APAP, Acetaminophen] | 4.13 mg/mg | 82.32 mg/mg | – | – | –
2 | CN(C)C(=N)N=C(N)N [Metformin, metformin] | – | – | slightly increased | 2.76 mg compound/mg cellular protein | –
3 | [H]/N=C(/N)N/C(=N/[H])NCCc1ccccc1 [Phenformin, phenformin] | – | – | not seen | – | –
4 | CCCC(CCC)C(=O)O [Valproic acid, valproic acid] | – | – | not seen | – | 15 h
